Experimental data from patent publication US11691984B2, “Compounds and methods for DCAF-mediated protein degradation” (The Scripps Research Institute, priority 2018, dated 2023).

How the values were obtained:
HEK293T cells = assay: Cell viability assay (Cell Titer Glo); assay type: cell-based, human
Method: HEK293T cells were seeded in 96-well clear bottom white plate (Corning) at 3×10^4 cells per well in 100 μL of DMEM medium and grown for 24 h. The cells were treated with 0.625, 1.25, 2.5, 5, 10, 20 and 40 μM of KB02-SLF or KB02-JQ1 (DMSO stock, final DMEM concentration is 0.1% (v/v)) in 100 μL of DMEM medium for 24 h. 50 μL of Cell Titer Glo reagent (Promega) was added to each well and incubate for 10 min at room temperature. The luminescence was read on CLARIOstar (BMG LAB TECH).

CRL(s) = assay: isoTOP-ABPP of ligand-engaged cysteines in HEK293T cells; assay type: cell-based, human; conditions: 10 μM KB02-SLF, 2 h
Method: HEK293T cells were treated with DMSO or 10 μM KB02-SLF for 2 h. Cells were collected and subjected to isoTOP-ABPP sample preparation using the same protocol as described in Backus et al., “Proteome-wide covalent ligand discovery in native biological systems”, Nature 534: 570-574 (2016).

FLAG-FKBP12_NLS = FLAG-FKBP12_NLS (Homo sapiens, UniProt P62942); assay: Polyubiquitination of immunoprecipitated FLAG-FKBP12_NLS in HEK293T cells; assay type: cell-based; parameters: expressed in transfected cells; host or cells: HEK293T, (lentiviral pCDH-CMV-MCS-EF1-Puro); conditions: KB02-SLF 5 μM, MG132 10 μM, 2 hours
Method: (§1) Cells were collected and lysed in 1% NP-40 lysis buffer (25 mM Tris-HCl pH 7.4, 150 mM NaCl, 10% glycerol, 1% Nonidet P-40) with complete protease inhibitor cocktail (Roche). Cells were vortexed and sonicated for 5 pulses (40%, 4). The supernatant was collected after centrifugation at 16,000 g for 10 min at 4° C. Protein concentration was determined by DC assay (Bio-Rad). Protein lysate was heated at 95° C. for 5 min in 1× Laemmli sample buffer. Proteins were resolved by 12% or 14% Novex Tris-Glycine Mini Gels (Invitrogen) and transferred to polyvinylidene fluoride (PVDF) membrane (0.2 Bio-Rad). The membrane was blocked with 5% BSA in TBST buffer (0.1% Tween 20, 20 mM Tris-HCl 7.6, 150 mM NaCl) at room temperature for 1 h. The antibody was diluted with fresh 5% BSA in TBST buffer (1:10000 dilution for FLAG, HA and β-Actin, 1:1000 dilution for others) and incubated with membrane (1 h room temperature for FLAG, HA and β-Actin, overnight 4° C. for others). Membrane was washed three times with TBST buffer and incubated with secondary antibody (1:5000 dilution in 5% BSA in TBST) at room temperature for 1 h. Membrane was washed three times with TBST buffer. The chemiluminescence signal in membrane was recorded after developing in ECL or ECL plus western blotting detection reagent using CL-XPosure film (Thermo Scientific). Relative band intensities were quantified using ImageJ. […]

BRD4 and DCAF16 = biological target: T1, BRD4 and DCAF16 (Homo sapiens, UniProt O60885+Q9NXF7); assay: Co-immunoprecipitation of BRD4-FLAG with HA-DCAF16 in HEK293T cells; assay type: cell-based; conditions: 10 μM KB02-JQ1, 10 μM MG132, 2 hours
T1 construct: expressed in transfected cells; host or cells: HEK293T (pRK5 vectors)
Method: as §1

BRD2 = biological target: T2, BRD2 (Homo sapiens, UniProt P25440); assay: Proteome-wide SILAC MS protein abundance in HEK293T cells: BRD2; assay type: cell-based; conditions: KB02-JQ1 20 μM, 24 hours
T2 construct: endogenous in cells; host or cells: HEK293T
Method: HEK293T light and heavy SILAC cells were treated with DMSO and KB02-JQ1 (20 μM) or KB02-SLF (2 μM) for 24 hours, respectively. Light and heavy cells were collected and lysed in 1% NP-40 lysis buffer with complete protease inhibitor cocktail. Cells were vortexed and sonicated for 5 pulses (40%, 4). The supernatant was collected after centrifugation at 16,000 g for 10 min at 4° C. Protein concentration was determined by DC assay. 50 μg proteome from light and heavy samples were mixed, followed by methanol/chloroform precipitation. […] Next, the ratio of the peak areas under the light and heavy signals (signal-to-noise ratio>2.5) was calculated. […] In addition, peptides detected as ‘singletons,’ where only the heavy ion of a peptide pair was identified, but that cleared all other filtering parameters, were given a default assigned ratio of ‘20,’ which is defined as any measured ratio that is ≥20 and is the maximum ratio reported here.” The median SILAC ratios from quantified peptides were used as measures of protein abundance. The following quality filters were further applied to generate the plot: (1) proteins must have at least two quantified peptides; (2) proteins must be present in both replicates; (3) for each protein, the standard deviation of measured ratios of peptides must be <1.0.

FLAG-FKBP12_NLS, sequence (P62942 whole entry): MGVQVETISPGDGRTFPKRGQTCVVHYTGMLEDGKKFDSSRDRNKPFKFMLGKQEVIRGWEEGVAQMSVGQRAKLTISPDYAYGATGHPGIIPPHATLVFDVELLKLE
T2 sequence (P25440 whole entry): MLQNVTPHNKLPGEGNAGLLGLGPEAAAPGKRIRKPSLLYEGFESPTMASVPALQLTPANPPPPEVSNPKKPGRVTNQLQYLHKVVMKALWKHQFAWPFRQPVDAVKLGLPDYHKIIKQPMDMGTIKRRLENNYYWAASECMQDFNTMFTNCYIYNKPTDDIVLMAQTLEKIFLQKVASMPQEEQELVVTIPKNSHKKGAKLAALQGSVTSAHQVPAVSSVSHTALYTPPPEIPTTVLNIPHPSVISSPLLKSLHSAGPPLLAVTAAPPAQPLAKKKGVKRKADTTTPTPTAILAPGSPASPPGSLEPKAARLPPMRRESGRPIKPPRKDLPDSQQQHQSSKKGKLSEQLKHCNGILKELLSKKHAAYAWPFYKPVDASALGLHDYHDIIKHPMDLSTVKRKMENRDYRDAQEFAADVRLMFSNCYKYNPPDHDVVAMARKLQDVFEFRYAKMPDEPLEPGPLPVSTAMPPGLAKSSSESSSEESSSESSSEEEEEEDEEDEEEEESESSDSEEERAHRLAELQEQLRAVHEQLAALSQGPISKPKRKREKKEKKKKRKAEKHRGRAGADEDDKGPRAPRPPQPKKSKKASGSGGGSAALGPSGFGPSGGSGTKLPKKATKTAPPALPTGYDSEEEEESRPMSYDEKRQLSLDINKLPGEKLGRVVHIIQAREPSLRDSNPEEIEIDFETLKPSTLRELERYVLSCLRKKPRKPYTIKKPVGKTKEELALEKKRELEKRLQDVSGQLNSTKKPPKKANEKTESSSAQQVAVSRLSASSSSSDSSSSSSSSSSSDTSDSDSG

Question: Which results are given for CCC(C)(C)C(=O)C(=O)N1CCCC[C@H]1C(=O)O[C@H](CCc1ccc(OC)c(OC)c1)c1cccc(NC(=O)CCOCCOCCNC(=O)COc2ccc3c(c2)CCCN3C(=O)CCl)c1 [KB02-SLF, (R)-1-(3-(3-(2-(2-(2-((1-(2-chloroacetyl)-1,2,3,4-tetrahydroquinolin-6-yl)oxy)acetamido)ethoxy)ethoxy)propanamido)phenyl)-3-(3,4-dimethoxyphenyl)propyl (S)-1-(3,3-dimethyl-2-oxopentanoyl)piperidine-2-carboxylate]?
Answer: test concentrations with evidence of cytotoxicity (HEK293T cells): > 10 µM; strongly engaged (>75%) cysteines on CRL(s) (CRL(s)): cysteines were not observed on CRL(s) that were strongly engaged (>75%); polyubiquitination of FKBP12_NLS after shRNA knockdown of DCAF16 (FLAG-FKBP12_NLS): abolished KB02-SLF-induced polyubiquitination of FKBP12_NLS; polyubiquitination of nuclear FKBP12_NLS (FLAG-FKBP12_NLS): induced polyubiquitination of nuclear FKBP12_NLS

Question: For Cc1sc2c(c1C)C(c1ccc(Cl)cc1)=N[C@@H](CC(=O)NCCOCCOCCNC(=O)COc1ccc3c(c1)CCCN3C(=O)CCl)c1nnc(C)n1-2 [KB02-JQ1, (S)-2-((1-(2-chloroacetyl)-1,2,3,4-tetrahydroquinolin-6-yl)oxy)-N-(2-(2-(2-(2-(4-(4-chlorophenyl)-2,3,9-trimethyl-6H-thieno[3,2-f][1,2,4]triazolo[4,3-a][1,4]diazepin-6-yl)acetamido)ethoxy)ethoxy)ethyl)acetamide], which “co-immunoprecipitation of DCAF16 with BRD4” value (BRD4 and DCAF16) is on record?
Answer: The value was “co-immunoprecipitated with BRD4 in a KB02-JQ1-dependent manner”.

Question: And the “BRD2 abundance (MS-based proteomics)” value (BRD2)?
Answer: The value was “appeared to be stabilized”.
